# US9546164B2 (GENENTECH, INC., priority 2013, dated 2017)
# Where a name gives a salt, the structure may show the parent alone.
# Target: hNav1.7 (Homo sapiens (Human), UniProt Q15858)
# Test: Tritiated sulfonamide competitive binding to membranes from cells expressing hNav1.7 and the β1 subunit;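 further: Filter-bound radioactivity counted by liquid scintillation, nonspecific binding defined with excess unlabelled ligand, IC50 fitted to percent inhibition of specific binding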
# Conditions: read-out: Ligand Binding Assay; 100 pM [3H]compound, membranes with hNav1.7 and β1 subunit, 18 h, room temperature
# Chain of hNav1.7 (Q15858 other isoform, or with tags, fused parts or gaps): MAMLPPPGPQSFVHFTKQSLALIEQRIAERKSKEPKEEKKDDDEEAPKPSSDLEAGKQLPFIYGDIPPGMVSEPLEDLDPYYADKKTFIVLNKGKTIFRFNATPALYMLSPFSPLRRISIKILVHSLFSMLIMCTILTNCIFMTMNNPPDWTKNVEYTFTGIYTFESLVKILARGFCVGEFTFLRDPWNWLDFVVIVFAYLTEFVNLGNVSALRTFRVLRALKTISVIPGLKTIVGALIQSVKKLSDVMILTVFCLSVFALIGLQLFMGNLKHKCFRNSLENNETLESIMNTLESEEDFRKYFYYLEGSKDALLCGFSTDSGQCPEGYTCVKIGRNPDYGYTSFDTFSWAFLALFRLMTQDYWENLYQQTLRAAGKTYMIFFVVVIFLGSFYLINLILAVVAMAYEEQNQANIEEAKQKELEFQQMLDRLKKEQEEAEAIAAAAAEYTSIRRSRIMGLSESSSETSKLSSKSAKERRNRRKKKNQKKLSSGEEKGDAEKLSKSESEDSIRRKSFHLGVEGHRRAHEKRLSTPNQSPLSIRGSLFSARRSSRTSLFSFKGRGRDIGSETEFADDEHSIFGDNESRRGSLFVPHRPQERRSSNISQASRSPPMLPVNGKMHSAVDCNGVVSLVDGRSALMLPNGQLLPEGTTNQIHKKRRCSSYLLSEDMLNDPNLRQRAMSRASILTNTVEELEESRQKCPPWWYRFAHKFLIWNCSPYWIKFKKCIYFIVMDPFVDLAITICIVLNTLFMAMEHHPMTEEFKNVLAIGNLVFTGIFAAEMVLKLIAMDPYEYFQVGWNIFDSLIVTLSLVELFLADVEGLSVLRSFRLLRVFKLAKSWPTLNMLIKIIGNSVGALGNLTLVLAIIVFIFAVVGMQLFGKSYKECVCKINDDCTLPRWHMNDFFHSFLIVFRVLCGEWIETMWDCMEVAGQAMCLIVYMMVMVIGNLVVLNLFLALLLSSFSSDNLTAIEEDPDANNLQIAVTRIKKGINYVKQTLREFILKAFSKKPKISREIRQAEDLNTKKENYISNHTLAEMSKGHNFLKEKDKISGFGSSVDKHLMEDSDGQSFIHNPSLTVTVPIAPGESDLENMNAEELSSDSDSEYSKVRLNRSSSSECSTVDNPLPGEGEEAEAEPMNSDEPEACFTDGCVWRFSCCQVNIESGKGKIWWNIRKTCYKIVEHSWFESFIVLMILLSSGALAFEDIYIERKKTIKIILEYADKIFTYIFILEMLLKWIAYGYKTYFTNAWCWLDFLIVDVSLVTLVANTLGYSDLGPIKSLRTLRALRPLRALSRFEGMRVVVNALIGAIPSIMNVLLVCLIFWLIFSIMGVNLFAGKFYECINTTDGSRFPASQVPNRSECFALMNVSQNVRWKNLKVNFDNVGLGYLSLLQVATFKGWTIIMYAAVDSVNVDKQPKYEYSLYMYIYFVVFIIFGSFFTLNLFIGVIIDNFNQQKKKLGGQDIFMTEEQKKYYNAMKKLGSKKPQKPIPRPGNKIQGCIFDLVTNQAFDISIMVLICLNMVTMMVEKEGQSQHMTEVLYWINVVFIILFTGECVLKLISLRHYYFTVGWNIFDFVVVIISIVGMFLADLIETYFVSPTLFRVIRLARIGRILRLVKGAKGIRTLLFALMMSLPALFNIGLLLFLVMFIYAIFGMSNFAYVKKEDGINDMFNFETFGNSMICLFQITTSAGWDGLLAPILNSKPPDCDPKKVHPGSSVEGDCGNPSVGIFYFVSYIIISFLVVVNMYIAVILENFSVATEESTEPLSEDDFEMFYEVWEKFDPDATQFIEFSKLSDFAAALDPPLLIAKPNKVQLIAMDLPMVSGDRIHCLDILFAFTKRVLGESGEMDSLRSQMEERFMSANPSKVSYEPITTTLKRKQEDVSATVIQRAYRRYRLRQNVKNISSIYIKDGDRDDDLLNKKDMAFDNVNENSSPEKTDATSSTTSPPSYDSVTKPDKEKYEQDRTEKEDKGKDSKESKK
# Chain of hNav1.7 (Q07699 19-218 partner): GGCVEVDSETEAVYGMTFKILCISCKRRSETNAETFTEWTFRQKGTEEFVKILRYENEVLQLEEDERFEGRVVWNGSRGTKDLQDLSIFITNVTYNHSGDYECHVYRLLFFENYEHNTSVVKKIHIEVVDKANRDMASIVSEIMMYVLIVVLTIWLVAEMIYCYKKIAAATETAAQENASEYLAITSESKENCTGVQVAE
row,Structure (SMILES),IC50
1,"CS(=O)(=O)NC(=O)c1cc(C2CC2)c(OCCC2CCN(Cc3cc(Cl)cc(Cl)c3)CC2)cc1F [Example 302, 5-cyclopropyl-4-(2-(1-(3,5-dichlorobenzyl)piperidin-4-yl)ethoxy)-2-fluoro-N-(methylsulfonyl)benzamide, trifluoroacetic acid salt]",5.7 nM
2,"CCS(=O)(=O)NC(=O)c1cc(C2CC2)c(OCCC2CCN(Cc3cc(Cl)cc(Cl)c3)CC2)cc1F [Example 303, 5-cyclopropyl-4-(2-(1-(3,5-dichlorobenzyl)piperidin-4-yl)ethoxy)-N-(ethylsulfonyl)-2-fluorobenzamide, trifluoroacetic acid salt]",6.5 nM
3,"O=C(NS(=O)(=O)C1CC1)c1cc(C2CC2)c(OCCC2CCN(Cc3cc(Cl)cc(Cl)c3)CC2)cc1F [Example 304, 5-cyclopropyl-N-(cyclopropylsulfonyl)-4-(2-(1-(3,5-dichlorobenzyl)piperidin-4-yl)ethoxy)-2-fluorobenzamide, trifluoroacetic acid salt]",3.7 nM
4,"CS(=O)(=O)NC(=O)c1cc(C2CC2)c(O[C@@H]2CCCN(Cc3cc(C(F)(F)F)cc(C4CC4)n3)C2)cc1F [Example 305, (R)-5-cyclopropyl-4-((1-((6-cyclopropyl-4-(trifluoromethyl)pyridin-2-yl)methyl)piperidin-3-yl)oxy)-2-fluoro-N-(methylsulfonyl)benzamide]",3.9 nM
5,"CS(=O)(=O)NC(=O)c1cc(C2CC2)c(OCC2CCN(Cc3cc(C(F)(F)F)cc(C4CC4)n3)CC2)cc1F [Example 306, 5-cyclopropyl-4-((1-((6-cyclopropyl-4-(trifluoromethyl)pyridin-2-yl)methyl)piperidin-4-yl)methoxy)-2-fluoro-N-(methylsulfonyl)benzamide]",6 nM
6,"CCS(=O)(=O)NC(=O)c1cc(C2CC2)c(OCC2CCN(Cc3cc(C(F)(F)F)cc(C4CC4)n3)CC2)cc1F [Example 307, 5-cyclopropyl-4-((1-((6-cyclopropyl-4-(trifluoromethyl)pyridin-2-yl)methyl)piperidin-4-yl)methoxy)-N-(ethylsulfonyl)-2-fluorobenzamide]",6.7 nM
7,O=C(NS(=O)(=O)C1CC1)c1cc(C2CC2)c(OCC2CCN(Cc3cc(C(F)(F)F)cc(C4CC4)n3)CC2)cc1F [Example 308],6 nM
8,"C[C@@H](c1ccc(Cl)c(C2CC2)n1)N1CCC[C@@H](Oc2cc(F)c(C(=O)NS(C)(=O)=O)cc2C2CC2)C1 [Example 310, 4-(((R)-1-((S)-1-(5-chloro-6-cyclopropylpyridin-2-yl)ethyl)piperidin-3-yl)oxy)-5-cyclopropyl-2-fluoro-N-(methylsulfonyl)benzamide]",2.3 nM
9,"CS(=O)(=O)NC(=O)c1cc(C2CC2)c(O[C@@H]2CCCN(Cc3cc(C(F)(F)F)cc(Cl)c3F)C2)cc1F [Example 311, (R)-4-((1-(3-chloro-2-fluoro-5-(trifluoromethyl)benzyl)piperidin-3-yl)oxy)-5-cyclopropyl-2-fluoro-N-(methylsulfonyl)benzamide]",2.9 nM
10,"COc1ccc(CN2CCC[C@@H](Oc3cc(F)c(C(=O)NS(=O)(=O)C4CC4)cc3C3CC3)C2)cc1F [Example 313, (R)-5-cyclopropyl-N-(cyclopropylsulfonyl)-2-fluoro-4-((1-(3-fluoro-4-methoxybenzyl)piperidin-3-yl)oxy)benzamide]",9.1 nM
11,"CS(=O)(=O)NC(=O)c1cc(C2CC2)c(O[C@@H]2CCCN(S(C)(=O)=O)C2)cc1F [Example 314, (R)-5-cyclopropyl-2-fluoro-N-(methylsulfonyl)-4-((1-(methylsulfonyl)piperidin-3-yl)oxy)benzamide]",> 10000 nM
12,"C[C@H](c1ccc(F)cc1)N1CCC[C@@H](Oc2cc(F)c(C(=O)NS(C)(=O)=O)cc2C2CC2)C1 [Example 316, 5-cyclopropyl-2-fluoro-4-(((R)-1-((R)-1-(4-fluorophenyl)ethyl)piperidin-3-yl)oxy)-N-(methylsulfonyl)benzamide]",37.2 nM
13,"C[C@H](c1ccc(F)cc1)N1CCC[C@@H](Oc2cc(F)c(C(=O)NS(=O)(=O)C3CC3)cc2C2CC2)C1 [Example 317, 5-cyclopropyl-N-(cyclopropylsulfonyl)-2-fluoro-4-(((R)-1-((R)-1-(4-fluorophenyl)ethyl)piperidin-3-yl)oxy)benzamide]",6 nM
14,"CS(=O)(=O)NC(=O)c1cc(C2CC2)c(O[C@@H]2CCCN(Cc3cc(F)ccc3C(F)(F)F)C2)cc1F [Example 318, (R)-5-cyclopropyl-2-fluoro-4-((1-(5-fluoro-2-(trifluoromethyl)benzyl)piperidin-3-yl)oxy)-N-(methylsulfonyl)benzamide]",2.6 nM
15,"CS(=O)(=O)NC(=O)c1cc(C2CC2)c(O[C@@H]2CCCN(Cc3cccc(C(F)(F)F)c3)C2)cc1F [Example 319, (R)-5-cyclopropyl-2-fluoro-N-(methylsulfonyl)-4-((1-(3-(trifluoromethyl)benzyl)piperidin-3-yl)oxy)benzamide]",5.4 nM
16,"CS(=O)(=O)NC(=O)c1cc(C2CC2)c(OC2CC3(C2)CN(Cc2ccc(F)cc2Cl)C3)cc1F [Example 320, 4-((2-(2-chloro-4-fluorobenzyl)-2-azaspiro[3.3]heptan-6-yl)oxy)-5-cyclopropyl-2-fluoro-N-(methylsulfonyl)benzamide, trifluoroacetic acid salt]",213 nM

# Now from value to molecule:
row,IC50,Structure (SMILES)
1,191 nM,"O=C(NS(=O)(=O)N1CC(F)C1)c1cc(C2CC2)c(OC2CC3(C2)CN(Cc2ccc(F)cc2Cl)C3)cc1F [Example 321, 4-((2-(2-chloro-4-fluorobenzyl)-2-azaspiro[3.3]heptan-6-yl)oxy)-5-cyclopropyl-2-fluoro-N-((3-fluoroazetidin-1-yl)sulfonyl)benzamide]"
2,1.9 nM,"C[C@@H]1CC[C@@H](Oc2cc(F)c(C(=O)NS(=O)(=O)N3CCC3)cc2C2CC2)CN1Cc1ccc(F)cc1Cl [Example 322, N-(azetidin-1-ylsulfonyl)-4-(((3R,6R)-1-(2-chloro-4-fluorobenzyl)-6-methylpiperidin-3-yl)oxy)-5-cyclopropyl-2-fluorobenzamide]"
3,1.9 nM,"C[C@@H]1CC[C@@H](Oc2cc(F)c(C(=O)NS(=O)(=O)C3CC3)cc2C2CC2)CN1Cc1ccc(F)cc1Cl [Example 323, 4-(((3R,6R)-1-(2-chloro-4-fluorobenzyl)-6-methylpiperidin-3-yl)oxy)-5-cyclopropyl-N-(cyclopropylsulfonyl)-2-fluorobenzamide]"
4,2.7 nM,"C[C@H]1CC[C@@H](Oc2cc(F)c(C(=O)NS(C)(=O)=O)cc2C2CC2)CN1Cc1ccc(F)cc1Cl [Example 324, 4-(((3R,6S)-1-(2-chloro-4-fluorobenzyl)-6-methylpiperidin-3-yl)oxy)-5-cyclopropyl-2-fluoro-N-(methylsulfonyl)benzamide]"
5,2.4 nM,"C[C@H]1CC[C@@H](Oc2cc(F)c(C(=O)NS(=O)(=O)N3CCC3)cc2C2CC2)CN1Cc1ccc(F)cc1Cl [Example 325, N-(azetidin-1-ylsulfonyl)-4-(((3R,6S)-1-(2-chloro-4-fluorobenzyl)-6-methylpiperidin-3-yl)oxy)-5-cyclopropyl-2-fluorobenzamide]"
6,2.9 nM,"C[C@H]1CC[C@@H](Oc2cc(F)c(C(=O)NS(=O)(=O)C3CC3)cc2C2CC2)CN1Cc1ccc(F)cc1Cl [Example 326, 4-(((3R,6S)-1-(2-chloro-4-fluorobenzyl)-6-methylpiperidin-3-yl)oxy)-5-cyclopropyl-N-(cyclopropylsulfonyl)-2-fluorobenzamide]"
7,2.7 nM,"CS(=O)(=O)NC(=O)c1cc(C2CC2)c(O[C@@H]2CCCN(CC3(C(F)(F)F)CCCC3)C2)cc1F [Example 327, (R)-5-cyclopropyl-2-fluoro-N-(methylsulfonyl)-4-((1-((1-(trifluoromethyl)cyclopentyl)methyl)piperidin-3-yl)oxy)benzamide]"
8,6.4 nM,"CS(=O)(=O)NC(=O)c1cc(C2CC2)c(O[C@@H]2CCCN(CC3(C(F)(F)F)CCC3)C2)cc1F [Example 328, (R)-5-cyclopropyl-2-fluoro-N-(methylsulfonyl)-4-((1-((1-(trifluoromethyl)cyclobutyl)methyl)piperidin-3-yl)oxy)benzamide]"
9,3.3 nM,"CS(=O)(=O)NC(=O)c1cc(C2CC2)c(OCC2CCN(CC3(C(F)(F)F)CCCC3)CC2)cc1F [Example 329, 5-cyclopropyl-2-fluoro-N-(methylsulfonyl)-4-((1-((1-(trifluoromethyl)cyclopentyl)methyl)piperidin-4-yl)methoxy)benzamide trifluoroacetic acid salt]"
10,31.9 nM,"C[C@H]1[C@@H](Oc2cc(F)c(C(=O)NS(C)(=O)=O)cc2C2CC2)CCCN1Cc1cc(Cl)cc(Cl)c1 [Example 330, 5-cyclopropyl-4-(((2S,3S)-1-(3,5-dichlorobenzyl)-2-methylpiperidin-3-yl)oxy)-2-fluoro-N-(methylsulfonyl)benzamide, trifluoroacetic acid salt]"
11,32.2 nM,"C[C@H]1[C@H](Oc2cc(F)c(C(=O)NS(C)(=O)=O)cc2C2CC2)CCCN1Cc1cc(Cl)cc(Cl)c1 [Example 331, 5-cyclopropyl-4-(((2S,3R)-1-(3,5-dichlorobenzyl)-2-methylpiperidin-3-yl)oxy)-2-fluoro-N-(methylsulfonyl)benzamide, trifluoroacetic acid salt]"
12,35.2 nM,"CS(=O)(=O)NC(=O)c1cc(C2CC2)c(OC[C@@H]2CCCN(Cc3ccc(F)cc3Cl)C2)cc1F [Example 332, (R)-4-((1-(2-chloro-4-fluorobenzyl)piperidin-3-yl)methoxy)-5-cyclopropyl-2-fluoro-N-(methylsulfonyl)benzamide]"
13,20.7 nM,O=C(NS(=O)(=O)N1CCC1)c1cc(C2CC2)c(OC[C@@H]2CCCN(Cc3ccc(F)cc3Cl)C2)cc1F [Example 333]
14,7.1 nM,"CS(=O)(=O)NC(=O)c1cc(C2CC2)c(OC[C@@H]2CCCN(Cc3cc(Cl)cc(Cl)c3)C2)cc1F [Example 334, (R)-5-cyclopropyl-4-((1-(3,5-dichlorobenzyl)piperidin-3-yl)methoxy)-2-fluoro-N-(methylsulfonyl)benzamide]"
15,14.3 nM,"CS(=O)(=O)NC(=O)c1cc(C2CC2)c(OC[C@H]2CCCN(Cc3ccc(F)cc3Cl)C2)cc1F [Example 335, (S)-4-((1-(2-chloro-4-fluorobenzyl)piperidin-3-yl)methoxy)-5-cyclopropyl-2-fluoro-N-(methylsulfonyl)benzamide]"
